The target of assay [1] is T1, SMARCA2 (Homo sapiens, UniProt P51531).
T1 construct: endogenous in cells; host or cells: RKO cells (CRL-2577, ATCC)
Kind of assay: SMARCA2 degradation analysis by imaging in RKO cells (DC50 A2). Particulars: tables 69, 70, 73, 76-78. It counts as cell-based. Here is the method: (§1) Determination of SMARCA2 and SMARCA4 Degradation (DC50 A2 and A4 [nM])
(§2) Protein Degradation Assays for SMARCA2 and SMARCA4
(§3) For degradation analysis by imaging, 1250 RKO cells (CRL-2577, ATCC) per well were seeded into 60 μL DMEM (Sigma Aldrich) supplemented with 10% FBS (Hyclone) in 384-well flat bottom plates (CellCarrier Ultra, Perkin Elmer) and incubated at 37° C. and 5% CO2 in a humidified atmosphere overnight. Compounds were added the next day using an Access Labcyte Workstation with a Labcyte Echo 550 or 555 acoustic dispenser and incubated with the cells for 4 or 24 h. Cells were fixed by adding 25 μL fixation buffer (7.4% formaldehyde (Sigma Aldrich F8775), 0.2% Triton TX100 (Sigma Aldrich F93443) in PBS) for 15 minutes at room temperature. After aspirating the fixing solution, the cells were washed once with 25 μL PBS and 25 μL of Blocking Buffer (10% Goat Serum in PBS) were added to each well and incubated for 30 minutes. Cells were washed with PBS and incubated with 20 μL mouse anti-Smarca4 (BRG1) antibody (Cell Signaling #52251) or rabbit anti-Smarca2 (BRM) antibody (Sigma Aldrich HPA029981) in blocking solution (PBS with 10% FCS) for ca. 2-4 h at RT. For detection of the nuclei, 25 μL of 5 μg/mL Hoechst 33342 (stock 10 mg/mL in H2O; Invitrogen H1399) were added together with Alexa Fluor 647 goat anti-mouse IgG (Invitrogen A-21235) or Alexa Fluor 488 goat anti-rabbit IgG (Invitrogen A-11034) in blocking solution and incubated for 60 min at RT. The cell layer was washed with 25 μL PBS, the wells were filled with 25 μL PBS and the plates sealed with an adhesive sheet. The mean intensity at 488 or 647 nm in the nucleus was measured using an Opera Phenix Plus High-Content Screening System (Perkin Elmer), values were normalized to the background and DMSO control and DC50 values were calculated and analyzed using a four-parametric logistic model.

Assay [2] deals with T2, SMARCA4 (Homo sapiens, UniProt P51532).
T2 construct: endogenous in cells; host or cells: RKO cells (CRL-2577, ATCC)
T2 sequence (P51532 whole entry): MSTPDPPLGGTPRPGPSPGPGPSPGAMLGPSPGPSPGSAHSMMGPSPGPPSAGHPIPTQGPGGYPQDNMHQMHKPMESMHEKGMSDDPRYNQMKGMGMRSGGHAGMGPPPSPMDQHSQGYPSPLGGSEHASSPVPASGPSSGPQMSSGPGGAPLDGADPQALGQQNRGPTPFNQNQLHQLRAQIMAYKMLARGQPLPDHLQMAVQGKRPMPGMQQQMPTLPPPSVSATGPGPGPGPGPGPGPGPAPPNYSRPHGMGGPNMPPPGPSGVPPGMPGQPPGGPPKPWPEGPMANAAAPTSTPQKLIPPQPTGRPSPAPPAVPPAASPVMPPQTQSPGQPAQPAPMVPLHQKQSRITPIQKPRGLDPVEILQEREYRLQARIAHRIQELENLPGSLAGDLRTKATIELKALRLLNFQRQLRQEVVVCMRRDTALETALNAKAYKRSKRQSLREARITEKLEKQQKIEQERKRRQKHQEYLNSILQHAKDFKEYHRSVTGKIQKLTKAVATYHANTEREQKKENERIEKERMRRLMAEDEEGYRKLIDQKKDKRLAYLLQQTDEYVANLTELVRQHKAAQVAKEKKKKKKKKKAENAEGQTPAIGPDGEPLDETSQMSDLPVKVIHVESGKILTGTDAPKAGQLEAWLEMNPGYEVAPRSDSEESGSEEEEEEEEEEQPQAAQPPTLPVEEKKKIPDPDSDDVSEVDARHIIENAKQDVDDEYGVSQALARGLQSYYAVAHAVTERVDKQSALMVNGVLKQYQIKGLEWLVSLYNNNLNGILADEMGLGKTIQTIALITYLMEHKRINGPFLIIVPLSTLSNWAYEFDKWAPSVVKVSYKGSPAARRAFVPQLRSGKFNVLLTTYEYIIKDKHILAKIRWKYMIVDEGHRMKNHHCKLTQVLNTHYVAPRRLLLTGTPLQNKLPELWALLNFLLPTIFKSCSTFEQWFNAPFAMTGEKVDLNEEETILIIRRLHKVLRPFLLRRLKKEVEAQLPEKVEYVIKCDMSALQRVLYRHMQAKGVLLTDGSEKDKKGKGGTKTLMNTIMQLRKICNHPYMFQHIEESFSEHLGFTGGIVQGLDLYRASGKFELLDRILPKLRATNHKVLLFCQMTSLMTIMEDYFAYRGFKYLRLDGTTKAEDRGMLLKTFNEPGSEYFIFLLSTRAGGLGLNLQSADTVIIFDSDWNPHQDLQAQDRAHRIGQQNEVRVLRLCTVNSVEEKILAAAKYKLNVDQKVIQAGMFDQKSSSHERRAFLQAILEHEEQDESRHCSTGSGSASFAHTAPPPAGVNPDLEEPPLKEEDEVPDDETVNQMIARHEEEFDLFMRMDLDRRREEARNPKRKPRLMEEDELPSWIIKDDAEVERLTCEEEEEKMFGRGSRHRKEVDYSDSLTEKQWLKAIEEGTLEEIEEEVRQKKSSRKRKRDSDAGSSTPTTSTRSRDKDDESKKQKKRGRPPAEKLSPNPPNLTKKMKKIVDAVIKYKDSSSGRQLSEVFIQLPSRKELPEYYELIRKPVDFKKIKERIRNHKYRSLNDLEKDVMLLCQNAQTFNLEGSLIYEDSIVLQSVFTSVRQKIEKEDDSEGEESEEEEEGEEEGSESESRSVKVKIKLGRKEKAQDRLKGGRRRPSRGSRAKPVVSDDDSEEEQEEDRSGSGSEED
The experiment in a line: SMARCA4 degradation analysis by imaging in RKO cells (DC50 A4). It counts as cell-based. As to conditions: tables 69, 70, 73, 76-78. Here is the method:
as §1, §2, §3

SMILES strings stand for the structures. A value given as a limit tells only on which side of the number the result lay.

This note sets out measurements from patent US20250049929A1, “NOVEL TETRAHYDROQUINOLINES AND PROTEOLYSIS TARGETING CHIMERA (PROTACS) COMPRISING THEM AS DEGRADERS OF SMARCA” (Boehringer Ingelheim International GmbH, priority 2021, published 2025).

T1 sequence (P51531 whole entry): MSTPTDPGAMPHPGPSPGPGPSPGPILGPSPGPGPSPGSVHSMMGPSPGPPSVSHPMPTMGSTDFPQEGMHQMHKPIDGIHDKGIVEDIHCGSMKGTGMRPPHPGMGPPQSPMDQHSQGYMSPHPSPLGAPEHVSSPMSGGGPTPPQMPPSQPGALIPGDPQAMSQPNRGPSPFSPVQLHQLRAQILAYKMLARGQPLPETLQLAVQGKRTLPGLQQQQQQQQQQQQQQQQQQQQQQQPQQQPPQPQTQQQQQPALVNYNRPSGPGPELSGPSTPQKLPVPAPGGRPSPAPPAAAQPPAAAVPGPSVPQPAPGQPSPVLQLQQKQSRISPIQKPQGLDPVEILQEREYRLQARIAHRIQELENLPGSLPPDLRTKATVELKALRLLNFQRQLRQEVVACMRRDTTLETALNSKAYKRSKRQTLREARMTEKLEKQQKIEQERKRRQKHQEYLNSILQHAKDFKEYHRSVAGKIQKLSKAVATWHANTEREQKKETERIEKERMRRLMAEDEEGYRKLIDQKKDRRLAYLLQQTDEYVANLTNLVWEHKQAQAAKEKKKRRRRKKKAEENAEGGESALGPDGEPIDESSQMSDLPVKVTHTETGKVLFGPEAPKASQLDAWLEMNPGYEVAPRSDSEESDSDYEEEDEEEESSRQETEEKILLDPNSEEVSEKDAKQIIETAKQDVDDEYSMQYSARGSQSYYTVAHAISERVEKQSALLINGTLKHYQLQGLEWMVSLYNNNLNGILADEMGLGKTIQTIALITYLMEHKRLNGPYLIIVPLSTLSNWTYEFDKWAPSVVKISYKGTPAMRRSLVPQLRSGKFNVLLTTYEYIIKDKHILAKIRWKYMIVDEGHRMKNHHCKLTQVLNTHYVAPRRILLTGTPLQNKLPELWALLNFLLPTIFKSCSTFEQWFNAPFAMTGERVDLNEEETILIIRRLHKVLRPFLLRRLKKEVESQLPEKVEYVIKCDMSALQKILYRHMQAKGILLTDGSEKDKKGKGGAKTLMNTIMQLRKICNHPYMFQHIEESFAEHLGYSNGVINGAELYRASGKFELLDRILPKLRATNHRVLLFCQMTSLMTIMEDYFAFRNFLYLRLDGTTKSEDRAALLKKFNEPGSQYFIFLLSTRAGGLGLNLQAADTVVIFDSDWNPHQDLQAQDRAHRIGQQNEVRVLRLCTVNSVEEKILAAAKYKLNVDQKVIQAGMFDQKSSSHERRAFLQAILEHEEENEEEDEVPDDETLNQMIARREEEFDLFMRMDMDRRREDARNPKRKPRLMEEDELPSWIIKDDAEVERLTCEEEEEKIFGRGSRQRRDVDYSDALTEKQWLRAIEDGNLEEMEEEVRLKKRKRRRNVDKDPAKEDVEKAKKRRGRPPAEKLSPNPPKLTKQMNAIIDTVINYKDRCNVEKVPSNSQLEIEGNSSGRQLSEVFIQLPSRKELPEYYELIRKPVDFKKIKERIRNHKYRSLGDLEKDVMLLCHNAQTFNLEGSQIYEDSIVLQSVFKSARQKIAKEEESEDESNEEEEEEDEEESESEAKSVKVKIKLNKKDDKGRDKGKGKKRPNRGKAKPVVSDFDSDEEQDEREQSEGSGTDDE

As a reminder, the DC50 is the concentration giving 50% degradation. Low readings indicate degradation at low concentration, high ones degradation only at high concentration. For the molecule `Cc1ncsc1-c1ccc([C@H](CC[C@H](C)CCN2CCC(c3ccc4c(c3)n(C3CCCC3)c3nc(=O)c5c(Br)cccc5n43)CC2)NC(=O)[C@@H]2C[C@@H](O)CN2C(=O)[C@@H](NC(=O)C2(F)CC2)C(C)(C)C)cc1` [Compound 42a], the DC50 in assay [1] was determined as 0.9 nM; in assay [2], 25 nM. For `Cc1ncsc1-c1ccc([C@H](CCCN2CCC(c3cc4c(cc3OCCCN(C)C)n3c5cccc(Br)c5c(=O)nc3n4C3CCCC3)CC2)NC(=O)[C@@H]2C[C@@H](O)CN2C(=O)[C@@H](NC(=O)C2(F)CC2)C(C)(C)C)cc1` [Compound 42aa] the same measures were 10 nM and 20 nM.

Consider `Cc1ncsc1-c1ccc([C@H](COCCN2CCC(c3cc4c(cc3OCCN3CCN(C)CC3)n3c5cccc(Br)c5c(=O)nc3n4C3CCCC3)CC2)NC(=O)[C@@H]2C[C@@H](O)CN2C(=O)[C@@H](NC(=O)C2(F)CC2)C(C)(C)C)cc1` [Compound 42ab], for which the half-maximal degradation concentration (DC50) was 21 nM in assay [1] and > 200 nM in assay [2].

With `Cc1ncsc1-c1ccc([C@H](CO[C@@H](C)CN2CCC(c3ccc4c(c3)n(C3CCCC3)c3nc(=O)c5c(Br)cccc5n43)CC2)NC(=O)[C@@H]2C[C@@H](O)CN2C(=O)[C@@H](NC(=O)C2(F)CC2)C(C)(C)C)cc1` [Compound 42ac], the DC50 in assay [1] was 20 nM; in assay [2] it was > 200 nM. As to `Cc1ncsc1-c1ccc([C@H](CCCN2CCC(c3ccc4c(c3)n(C3COC3)c3nc(=O)c5c(Br)cccc5n43)CC2)NC(=O)[C@@H]2C[C@@H](O)CN2C(=O)[C@@H](NC(=O)C2(F)CC2)C(C)(C)C)cc1` [Compound 42ad], the values for the 50% degradation concentration (DC50) in assay [1] and in assay [2] were 25 nM and > 200 nM, respectively. For `CC(C)(C)[C@H](NC(=O)C1(F)CC1)C(=O)N1C[C@H](O)C[C@H]1C(=O)N[C@@H](CCCN1CCC(c2ccc3c(c2)n(C2CCCC2)c2nc(=O)c4c(Br)cccc4n32)CC1)c1ccc(-c2cncs2)cc1` [Compound 42ae] the same measures were 1 nM and 5 nM.

As for `Cc1ncsc1-c1ccc([C@H](COCC(O)CN2CCC(c3ccc4c(c3)n(C3CCCC3)c3nc(=O)c5c(Br)cccc5n43)CC2)NC(=O)[C@@H]2C[C@@H](O)CN2C(=O)[C@@H](NC(=O)C2(F)CC2)C(C)(C)C)cc1` (stereo partly drawn) [Compound 42af], the 50% degradation concentration (DC50) in assay [1] stood at 6 nM; in assay [2], 25 nM. For the molecule `CCn1c2cc(C3CCN(CCCCCOC[C@H](NC(=O)[C@@H]4C[C@@H](O)CN4C(=O)[C@@H](NC(=O)C4(N(C)C)CC4)C(C)(C)C)c4ccc(-c5scnc5C)cc4)CC3)c(OCCOCCOC)cc2n2c3cccc(Br)c3c(=O)nc12` [Compound 42ag], the values for the DC50 in assay [1] and in assay [2] were 9 nM and > 200 nM, respectively.

`Cc1ncsc1-c1ccc([C@H](CCCN2CCC(c3ccc4c(c3)n(C3CCCC3)c3nc(=O)c5c(Br)cccc5n43)CC2)NC(=O)[C@@H]2C[C@@H](O)CN2C(=O)[C@@H](NC(=O)C2(N(C)C)CC2)C(C)(C)C)cc1` [Compound 42ah]: the DC50 in assay [1] came to 2 nM; in assay [2] it was 17 nM. `Cc1ncsc1-c1ccc([C@H](CCCCN2CCC(c3ccc4c(c3)n(C3CCCC3)c3nc(=O)c5c(Br)cccc5n43)CC2)NC(=O)[C@@H]2C[C@@H](O)CN2C(=O)[C@@H](NC(=O)C2(F)CC2)C(C)(C)C)cc1` [Compound 42ai]: the values for the DC50 in assay [1] and in assay [2] were 2 nM and 9 nM, respectively. For `Cc1ncsc1-c1ccc([C@H](COCCN2CCC(c3ccc4c(c3)n(C3CCCC3)c3nc(=O)c5c(Br)cccc5n43)CC2)NC(=O)[C@@H]2C[C@@H](O)CN2C(=O)[C@@H](NC(=O)C2(N(C)C)CC2)C(C)(C)C)cc1` [Compound 42aj], the DC50 in assay [1] came to 4 nM.

In the case of `Cc1ncsc1-c1ccc([C@H](COCCCN2CCC(c3ccc4c(c3)n(C3CCCC3)c3nc(=O)c5c(Br)cccc5n43)CC2)NC(=O)[C@@H]2C[C@@H](O)CN2C(=O)[C@@H](NC(=O)C2(F)CC2)C(C)(C)C)cc1` [Compound 42ak], the values for the half-maximal degradation concentration (DC50) in assay [1] and in assay [2] were 2 nM and 11 nM, respectively. The matching figures for `Cc1ncsc1-c1ccc([C@H](CCCN2CCC(c3cc4c(cc3OCCOCCO)n3c5cccc(Br)c5c(=O)nc3n4C3CCCC3)CC2)NC(=O)[C@@H]2C[C@@H](O)CN2C(=O)[C@@H](NC(=O)C2(F)CC2)C(C)(C)C)cc1` [Compound 42am]: 0.9 nM and 25 nM. The matching figures for `Cc1ncsc1-c1ccc([C@H](CO[C@H](C)CN2CCC(c3cc4c(cc3OC[C@@H]3CCCO3)n3c5cccc(Br)c5c(=O)nc3n4C3CCCC3)CC2)NC(=O)[C@@H]2C[C@@H](O)CN2C(=O)[C@@H](NC(=O)C2(F)CC2)C23CC4CC(CC(C4)C2)C3)cc1` [Compound 42an]: 0.6 nM and 7 nM.

Take `Cc1ncsc1-c1ccc([C@H](CCCCCN2CCN(c3ccc4c(c3)n(C3CCCC3)c3nc(=O)c5c(Br)cccc5n43)CC2(C)C)NC(=O)[C@@H]2C[C@@H](O)CN2C(=O)[C@@H](NC(=O)C2(F)CC2)C(C)(C)C)cc1` [Compound 42ao]: the DC50 is 1 nM in assay [1] and 17 nM in assay [2].

Take `Cc1ncsc1-c1ccc([C@H](CCCCCN2CCN(c3ccc4c(c3)n(C3CCCC3)c3nc(=O)c5c(Br)cccc5n43)[C@H](C)C2)NC(=O)[C@@H]2C[C@@H](O)CN2C(=O)[C@@H](NC(=O)C2(F)CC2)C(C)(C)C)cc1` [Compound 42aq]: the DC50 in assay [1] stood at 1 nM; in assay [2] it was 9 nM. The matching figures for `Cc1ncsc1-c1ccc([C@H](CCCCCN2CCN(c3ccc4c(c3)n(C3CCCC3)c3nc(=O)c5c(Br)cccc5n43)[C@@H](C)C2)NC(=O)[C@@H]2C[C@@H](O)CN2C(=O)[C@@H](NC(=O)C2(F)CC2)C(C)(C)C)cc1` [Compound 42ar]: 0.5 nM and 2 nM.

As to `Cc1ncsc1-c1ccc([C@@H](CC[C@@H](C)CCN2CCC(c3ccc4c(c3)n(C3CCCC3)c3nc(=O)c5c(Br)cccc5n43)CC2)NC(=O)[C@@H]2C[C@@H](O)CN2C(=O)[C@@H](NC(=O)C2(F)CC2)C(C)(C)C)cc1` [Compound 42as], the DC50 was 82 nM in assay [1] and > 833 nM in assay [2]. Regarding `Cc1ncsc1-c1ccc([C@@H](CC[C@H](C)CCN2CCC(c3ccc4c(c3)n(C3CCCC3)c3nc(=O)c5c(Br)cccc5n43)CC2)NC(=O)[C@@H]2C[C@@H](O)CN2C(=O)[C@@H](NC(=O)C2(F)CC2)C(C)(C)C)cc1` [Compound 42at], the results for the DC50 in assay [1] and in assay [2] were 57 nM and > 833 nM, respectively. The matching figures for `Cc1ncsc1-c1ccc([C@H](CCCCCN2C[C@@H]3C[C@H]2CN3c2ccc3c(c2)n(C2CCCC2)c2nc(=O)c4c(Br)cccc4n32)NC(=O)[C@@H]2C[C@@H](O)CN2C(=O)[C@@H](NC(=O)C2(F)CC2)C(C)(C)C)cc1` [Compound 42au]: 7 nM and > 833 nM. Take `Cc1ncsc1-c1ccc([C@H](COCCN2CCC(c3cc4c(cc3F)n3c5cccc(Br)c5c(=O)nc3n4C3CCCC3)CC2)NC(=O)[C@@H]2C[C@@H](O)CN2C(=O)[C@@H](NC(=O)C2(F)CC2)C(C)(C)C)cc1` [Compound 42av]: the half-maximal degradation concentration (DC50) was 13 nM in assay [1] and 162 nM in assay [2]. The matching figures for `Cc1ncsc1-c1ccc([C@H](CCCCCN2CCC(c3cc4c(cn3)n3c5cccc(Br)c5c(=O)nc3n4C3CCCC3)CC2)NC(=O)[C@@H]2C[C@@H](O)CN2C(=O)[C@@H](NC(=O)C2(F)CC2)C(C)(C)C)cc1` [Compound 42aw]: 6 nM and > 833 nM. For `Cc1ncsc1-c1ccc([C@H](CCCCN(C)C2CCC(c3ccc4c(c3)n(C3CCCC3)c3nc(=O)c5c(Br)cccc5n43)CC2)NC(=O)[C@@H]2C[C@@H](O)CN2C(=O)[C@@H](NC(=O)C2(F)CC2)C(C)(C)C)cc1` (stereo partly drawn) [Compound 42ax] the same measures were 7 nM and 29 nM. The matching figures for `COc1cc2c(cc1C1CCN(CCOC[C@H](NC(=O)[C@@H]3C[C@@H](O)CN3C(=O)[C@@H](NC(=O)C3(F)CC3)C(C)(C)C)c3ccc(-c4scnc4C)cc3)CC1)n(C1CCCC1)c1nc(=O)c3c(Br)cccc3n21` [Compound 42ay]: 15 nM and 109 nM. For the molecule `Cc1ncsc1-c1ccc([C@H](COCCN2CCC(c3cc4c(cc3OC3CCOC3)n3c5cccc(Br)c5c(=O)nc3n4C3CCCC3)CC2)NC(=O)[C@@H]2C[C@@H](O)CN2C(=O)[C@@H](NC(=O)C2(F)CC2)C(C)(C)C)cc1` (stereo partly drawn) [Compound 42az], the 50% degradation concentration (DC50) in assay [1] amounted to 36 nM; in assay [2] it was 800 nM. For `Cc1ncsc1-c1ccc([C@H](CC[C@H](C)CCN2CCC(c3ccc4c(c3)n([C@H]3CCOC3)c3nc(=O)c5c(Br)cccc5n43)CC2)NC(=O)[C@@H]2C[C@@H](O)CN2C(=O)[C@@H](NC(=O)C2(F)CC2)C(C)(C)C)cc1` [Compound 42b] the same measures were 2 nM and > 833 nM.
